Data taken from patent US4435404A, “Carbostyril derivatives” (priority 1980, dated 1984).

Key:
[1] = system: Deoxycorticosteroneacetate (DOCA)/saline hypertension rats (DHR); assay: Hypotensive effect, Tail-cuff method, DHR; format: in vivo, rat; settings: 30 mg/kg oral, mean value ± standard deviation
Protocol: Hypotensive effect of the compounds were measured by determining the maximum blood pressure of the test animals according to a procedure of Tail-cuff method.
Test animals used were the following two types.
(2) Deoxycorticosteroneacetate (DOCA)/saline hypertension rats (DHR)
Wistar strain male rats having 150-170 g of body weight, were anesthetized with ether and the left-side kidney was enucleated. One (1) week after the operation, 10 mg/kg of DOCA was injected subcutaneously once a week and 1% NaCl aqueous solution was given as drinking water. Five (5) weeks after the operation, rats having the maximum blood pressure over 150 mmHg were selected and used as test animals which were abstained from food for overnight.
Each of compounds to be tested were administered orally and the blood pressure was measured before the administration and 1, 2, 4, 6 and 8 hours after the administration. The blood pressure was measured by using Recorder (Rectihoriz type 8S, San-ei Instrument) and Electrosthygmomanometer PE-300 (Macro Bio-systems, Houston, Tex.).

[2] = biological target: T1, cyclic AMP phosphodiesterase (Oryctolagus cuniculus, UniProt G1ST54); assay: Obstructive action against cyclic AMP phosphodiesterase; format: biochemical; settings: rabbit platelet enzyme, 30° C., 20 minutes
T1 construct: the supernatant was collected to use it as a crude enzyme solution; from tissue; host or cells: rabbit platelets (from platelet-rich plasma)
T1 sequence (G1ST54 1-1128): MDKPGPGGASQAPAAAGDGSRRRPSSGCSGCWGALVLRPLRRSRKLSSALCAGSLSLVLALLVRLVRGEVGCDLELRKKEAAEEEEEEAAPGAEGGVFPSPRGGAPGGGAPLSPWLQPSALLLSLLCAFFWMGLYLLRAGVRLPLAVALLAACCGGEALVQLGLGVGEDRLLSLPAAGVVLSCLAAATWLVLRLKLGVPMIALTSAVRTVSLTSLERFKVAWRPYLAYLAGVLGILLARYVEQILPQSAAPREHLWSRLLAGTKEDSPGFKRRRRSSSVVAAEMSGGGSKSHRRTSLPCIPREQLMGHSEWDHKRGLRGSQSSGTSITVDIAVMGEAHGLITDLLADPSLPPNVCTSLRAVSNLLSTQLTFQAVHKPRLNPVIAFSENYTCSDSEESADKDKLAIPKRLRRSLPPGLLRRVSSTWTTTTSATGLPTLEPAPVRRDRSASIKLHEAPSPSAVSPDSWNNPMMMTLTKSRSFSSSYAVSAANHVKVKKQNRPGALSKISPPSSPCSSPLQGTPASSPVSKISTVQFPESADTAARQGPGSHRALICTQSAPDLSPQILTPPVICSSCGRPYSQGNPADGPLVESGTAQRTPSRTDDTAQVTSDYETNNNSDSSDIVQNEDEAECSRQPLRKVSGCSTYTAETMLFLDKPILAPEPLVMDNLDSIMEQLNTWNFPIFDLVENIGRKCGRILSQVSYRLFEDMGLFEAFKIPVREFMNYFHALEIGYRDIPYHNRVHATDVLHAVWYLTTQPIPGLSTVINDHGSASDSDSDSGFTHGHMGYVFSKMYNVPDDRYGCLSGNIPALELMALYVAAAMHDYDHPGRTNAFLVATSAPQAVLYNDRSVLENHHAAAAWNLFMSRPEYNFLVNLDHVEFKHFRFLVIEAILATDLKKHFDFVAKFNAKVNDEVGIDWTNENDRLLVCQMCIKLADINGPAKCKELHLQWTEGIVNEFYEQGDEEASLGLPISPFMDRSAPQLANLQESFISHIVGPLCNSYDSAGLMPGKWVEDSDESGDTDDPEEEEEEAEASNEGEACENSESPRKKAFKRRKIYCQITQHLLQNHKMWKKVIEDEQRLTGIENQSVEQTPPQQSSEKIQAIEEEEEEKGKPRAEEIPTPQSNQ
Protocol: That is, for determining the obstructive activity against cyclic AMP phosphodiesterase, 10 ml of a solution obtained by adding 1 mmol of MgCl2 into 50 mmol of tris-hydrochloric acid buffer with pH 7.4 was added to the platelets obtained by further centrifuging the above-said rabbit PRP at 3,000 r.p.m. for 10 minutes, and the suspended platelets were ground by a Teflon potter type homogenizer. This was followed by two times of freezing and thawing treatment and 300-second fracturing with 200 watt supersonic waves. After additional 60-minute centrifugation with 100,000 G, the supernatant was collected to use it as a crude enzyme solution.
10 Milliliters of this crude buffer solution was added to a 1.5×20 cm DEAE-cellulose column which has previously been buffered with 50 mM of tris-acetate buffer (pH 6.0), followed by washing and elution with 30 ml of 50 mM tris-acetate buffer, and this buffer solution was subjected to linear gradient elution with 0 to 0.5 moles of sodium acetate-tris-acetatebuffer (total amount of elute was 300 ml.). The flow rate was 0.5 ml/min, and 5 ml of each fraction was batched out. […] This fraction was used as cyclic AMP phosphodiesterase.
0.1 Milliliter of an aqueous solution of each test compound of a specified concentration was mixed with 40 mmol of tris-hydrochloric acid buffer (pH 8.0, containing 50 μg of cow serum albumin and 4 mmol of MgCl2) containing predetermined 1.0 μmol of cyclic AMP (tritium cyclic AMP), and 0.2 ml of this mixed solution was used as substrate solution.
0.2 Milliliter of the above-prepared cyclic AMP phosphodiesterase of a predetermined concentration was added to said substrate solution and the mixture was reacted at 30° C. for 20 minutes, producing tritium 5'-AMP from the tritium cyclic AMP.
The reaction system was then immersed in boiling water for 2 minutes to stop the reaction, and then this reaction solution was cooled in ice water and, for converting the produced tritium 5'-AMP into tritium adenosine, the solution was added with 0.05 ml (1 mg/ml) of snake poison as 5'-nucleotidase and reacted at 30° C. for 10 minutes. The whole amount of this reaction solution was then added to a cation exchange resin (AG 500 W×4, 200-400 meshes, manufactured by Bio-Rad Co., column size: 0.5×1.5 cm), and the produced tritium anodesine alone was allowed to combine, washed with 6 ml of distilled water and eluted with 1.5 ml of 3 N-ammonia water. The whole quantity of the elutant was added with 10 ml of a triton-toluene type scintillator and the produced tritium adenosine was measured by a liquid scintillation counter to determine the phosphodiesterase activity.
In this way, the phosphodiesterase activation value (Vs) of the test compounds of the respective concentrations was determined, and the phosphodiesterase obstruction rate (%) was determined from said activation value (Vs) and control value (Vc) (obtained from water not containing any test compound) from the following formula: [formula] Known 1-methyl-3-isobutylxanthine was used as control.

## O=C(CCCOc1ccc2[nH]c(=O)ccc2c1)N(CCO)C1CCCCC1 [No. 1, 6-{3-[N-(2-hydroxyethyl)-N-cyclohexylaminocarbonyl]propoxy}carbostyril]
[1]; 1 hour
  Maximum blood pressure after the administration (difference): -46.0 ± 11.7 mmHg
[1]; 2 hours
  Maximum blood pressure after the administration (difference): -42.6 ± 6.5 mmHg
[1]; 4 hours
  Maximum blood pressure after the administration (difference): -37.6 ± 5.2 mmHg
[1]; 6 hours
  Maximum blood pressure after the administration (difference): -34.4 ± 10.5 mmHg
[1]; 8 hours
  Maximum blood pressure after the administration (difference): -29.0 ± 10.5 mmHg
[2]
  IC50: 150 nM
